Measurements: ChEMBL document CHEMBL5303573, “Mapping human microbiome drug metabolism by gut bacteria and their genes” (Nature, 2019)

Columns and labels:
[1] = The drug is tested on Bifidobacterium longum subsp. Infantis strain: CCUG52486 for biotransformation. The drug concentrations were measured before and after a 12-h incubation by liquid-chromatography-coupled mass spectrometry (LC–MS); details: 2 µM
[2] = The drug is tested on Bifidobacterium ruminantium strain: fecal isolate for biotransformation. The drug concentrations were measured before and after a 12-h incubation by liquid-chromatography-coupled mass spectrometry (LC–MS); details: 2 µM
[3] = The drug is tested on Collinsella aerofaciens strain: ATCC25986 for biotransformation. The drug concentrations were measured before and after a 12-h incubation by liquid-chromatography-coupled mass spectrometry (LC–MS); details: 2 µM
[4] = The drug is tested on Bacteroides caccae strain: ATCC43185 for biotransformation. The drug concentrations were measured before and after a 12-h incubation by liquid-chromatography-coupled mass spectrometry (LC–MS); details: 2 µM
[5] = The drug is tested on Bacteroides cellulosilyticus strain: DSM14838 for biotransformation. The drug concentrations were measured before and after a 12-h incubation by liquid-chromatography-coupled mass spectrometry (LC–MS); details: 2 µM
[6] = The drug is tested on Bacteroides vulgatus strain: ATCC8482 for biotransformation. The drug concentrations were measured before and after a 12-h incubation by liquid-chromatography-coupled mass spectrometry (LC–MS); details: phocaeicola vulgatus, 2 µM
[7] = The drug is tested on Parabacteroides merdae strain: ATCC43184 for biotransformation. The drug concentrations were measured before and after a 12-h incubation by liquid-chromatography-coupled mass spectrometry (LC–MS); details: 2 µM
[8] = The drug is tested on Anaerotruncus colihominis strain: DSM17241 for biotransformation. The drug concentrations were measured before and after a 12-h incubation by liquid-chromatography-coupled mass spectrometry (LC–MS); details: 2 µM
[9] = The drug is tested on Clostridium sp. strain: fecal isolate for biotransformation. The drug concentrations were measured before and after a 12-h incubation by liquid-chromatography-coupled mass spectrometry (LC–MS); details: 2 µM
[10] = The drug is tested on Clostridium scindens strain: ATCC35704 for biotransformation. The drug concentrations were measured before and after a 12-h incubation by liquid-chromatography-coupled mass spectrometry (LC–MS); details: 2 µM
[11] = The drug is tested on Dorea formicigenerans strain: ATCC27755 for biotransformation. The drug concentrations were measured before and after a 12-h incubation by liquid-chromatography-coupled mass spectrometry (LC–MS); details: 2 µM
[12] = The drug is tested on Ruminococcus gnavus strain: ATCC29149 for biotransformation. The drug concentrations were measured before and after a 12-h incubation by liquid-chromatography-coupled mass spectrometry (LC–MS); details: mediterraneibacter gnavus, 2 µM
[13] = The drug is tested on Ruminococcus lactaris strain: ATCC29176 for biotransformation. The drug concentrations were measured before and after a 12-h incubation by liquid-chromatography-coupled mass spectrometry (LC–MS); details: 2 µM
[14] = The drug is tested on Ruminococcus torques strain: ATCC27756 for biotransformation. The drug concentrations were measured before and after a 12-h incubation by liquid-chromatography-coupled mass spectrometry (LC–MS); format: ADME; parameters: dose 2 uM, timepoint 0 vs 12 hours; details: 2 µM
[15] = bifidobacterium adolescentis, 12 h, 2 µM
Description: The drug is tested on Bifidobacterium adolescentis strain: ATCC 15703 for biotransformation. The drug concentrations were measured before and after a 12-h incubation by liquid-chromatography-coupled mass spectrometry (LC–MS)

[16] = bacteroides fragilis, 12 h, 2 µM
Description: The drug is tested on Bacteroides fragilis strain: DS-208 for biotransformation. The drug concentrations were measured before and after a 12-h incubation by liquid-chromatography-coupled mass spectrometry (LC–MS)

[17] = bacteroides intestinalis, 12 h, 2 µM
Description: The drug is tested on Bacteroides intestinalis strain: DSM17393 for biotransformation. The drug concentrations were measured before and after a 12-h incubation by liquid-chromatography-coupled mass spectrometry (LC–MS)

[18] = bacteroides thetaiotaomicron, 12 h, 2 µM
Description: The drug is tested on Bacteroides thetaiotaomicron strain: VPI-5482 for biotransformation. The drug concentrations were measured before and after a 12-h incubation by liquid-chromatography-coupled mass spectrometry (LC–MS)

[19] = parabacteroides johnsonii, 12 h, 2 µM
Description: The drug is tested on Parabacteroides johnsonii strain: DSM18315 for biotransformation. The drug concentrations were measured before and after a 12-h incubation by liquid-chromatography-coupled mass spectrometry (LC–MS)

[20] = anaerostipes sp., 12 h, 2 µM
Description: The drug is tested on Anaerostipes sp. strain: fecal isolate for biotransformation. The drug concentrations were measured before and after a 12-h incubation by liquid-chromatography-coupled mass spectrometry (LC–MS)

SMILES | Bacterial Biotransformation [1] | Bacterial Biotransformation [2] | Bacterial Biotransformation [3] | Bacterial Biotransformation [4] | Bacterial Biotransformation [5] | Bacterial Biotransformation [6] | Bacterial Biotransformation [7] | Bacterial Biotransformation [8] | Bacterial Biotransformation [9] | Bacterial Biotransformation [10] | Bacterial Biotransformation [11] | Bacterial Biotransformation [12] | Bacterial Biotransformation [13] | Bacterial Biotransformation [14] | Bacterial Biotransformation [15] | Bacterial Biotransformation [16] | Bacterial Biotransformation [17] | Bacterial Biotransformation [18] | Bacterial Biotransformation [19] | Bacterial Biotransformation [20]
C[C@]12C=CC(=O)C=C1CC[C@@H]1[C@@H]2C(=O)C[C@@]2(C)[C@H]1CC[C@]2(O)C(=O)CO [PREDNISONE] | Compound NOT metabolized | Compound NOT metabolized | Compound NOT metabolized | Compound NOT metabolized | Compound NOT metabolized | Compound NOT metabolized | Compound NOT metabolized | Compound NOT metabolized | Compound NOT metabolized | Compound NOT metabolized | Compound NOT metabolized | Compound NOT metabolized | Compound NOT metabolized | Compound NOT metabolized | Compound NOT metabolized | Compound NOT metabolized | Compound NOT metabolized | Compound NOT metabolized | Compound NOT metabolized | Compound NOT metabolized
Nc1nc2ccc(OC(F)(F)F)cc2s1 [RILUZOLE] | Compound NOT metabolized | Compound metabolized | Compound NOT metabolized | Compound NOT metabolized | Compound NOT metabolized | Compound NOT metabolized | Compound NOT metabolized | Compound NOT metabolized | Compound metabolized | Compound NOT metabolized | Compound NOT metabolized | Compound NOT metabolized | Compound NOT metabolized | – | Compound NOT metabolized | Compound metabolized | Compound NOT metabolized | Compound metabolized | Compound NOT metabolized | Compound NOT metabolized
CS(=O)(=O)O.O.O.O.O=C1Cc2cc(CCN3CCN(c4nsc5ccccc45)CC3)c(Cl)cc2N1 [ZIPRASIDONE MESYLATE] | Compound NOT metabolized | Compound NOT metabolized | Compound NOT metabolized | Compound NOT metabolized | Compound NOT metabolized | Compound metabolized | Compound NOT metabolized | – | Compound NOT metabolized | Compound NOT metabolized | Compound NOT metabolized | Compound NOT metabolized | Compound NOT metabolized | Compound NOT metabolized | – | Compound NOT metabolized | Compound NOT metabolized | Compound NOT metabolized | Compound NOT metabolized | Compound NOT metabolized
CCOc1ccccc1OCCN[C@H](C)Cc1ccc(OC)c(S(N)(=O)=O)c1.Cl [TAMSULOSIN HYDROCHLORIDE] | Compound NOT metabolized | Compound NOT metabolized | Compound NOT metabolized | Compound NOT metabolized | Compound NOT metabolized | Compound NOT metabolized | Compound NOT metabolized | Compound NOT metabolized | Compound NOT metabolized | Compound NOT metabolized | Compound NOT metabolized | Compound NOT metabolized | Compound NOT metabolized | Compound NOT metabolized | Compound NOT metabolized | Compound NOT metabolized | Compound NOT metabolized | Compound NOT metabolized | Compound NOT metabolized | Compound NOT metabolized
CC(C)c1nc(CN(C)C(=O)N[C@H](C(=O)N[C@@H](Cc2ccccc2)C[C@H](O)[C@H](Cc2ccccc2)NC(=O)OCc2cncs2)C(C)C)cs1 [RITONAVIR] | Compound NOT metabolized | Compound NOT metabolized | Compound NOT metabolized | Compound NOT metabolized | Compound NOT metabolized | Compound metabolized | Compound NOT metabolized | Compound NOT metabolized | Compound metabolized | Compound NOT metabolized | Compound NOT metabolized | Compound NOT metabolized | Compound NOT metabolized | Compound NOT metabolized | – | Compound metabolized | – | Compound NOT metabolized | Compound NOT metabolized | Compound NOT metabolized
CCC(COC(=O)c1cc(OC)c(OC)c(OC)c1)(c1ccccc1)N(C)C.O=C(O)/C=C\C(=O)O (centres undefined) | Compound metabolized | Compound metabolized | – | Compound NOT metabolized | Compound NOT metabolized | Compound NOT metabolized | Compound metabolized | Compound metabolized | Compound metabolized | Compound metabolized | Compound metabolized | Compound metabolized | Compound metabolized | Compound metabolized | Compound metabolized | Compound NOT metabolized | Compound metabolized | Compound metabolized | Compound metabolized | Compound metabolized
